For data set [1], the system named is Caco-2 cells. Briefly: Caco-2 bidirectional permeability. The conditions noted are these: for Caco-2 A2B (10^−6 cm/s): A to B; for Caco-2 A2B (10^−6 cm/s) / Caco-2 B2A (10^−6 cm/s): HBSS pH 7.4, 2 hours; for Caco-2 B2A (10^−6 cm/s): B to A; for Caco-2 ER: Efflux Ratio=Papp (BA)/Papp (AB). Type of data set: in vitro ADME. In short, it runs like this: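 Caco-2 monolayers grown 21–28 days on PET inserts were run in duplicate in HBSS with 10 mM HEPES, pH 7.4. Compound was tested in both directions at […] for 2 h at 37 °C and quantified by LC-MS/MS. Papp, % recovery and efflux ratio (B-A/A-B) were calculated, with lucifer yellow checking monolayer integrity.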

A short description of data set [2]: Human hepatocyte stability, in vitro h-Hept CLpredict. The class given is in vitro ADME. The conditions noted are these: cryopreserved hepatocytes, predicted hepatic clearance, cells without asterisk, read-out: hHep Cl. The gist of the method: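 Cryopreserved human hepatocytes at 0.5×10^6 viable cells/mL in William's E medium, compound added from 100 μM solution, sampled 0–120 min in duplicate with LC/MS/MS quantitation. t1/2 from parent disappearance converted to CLint, then scaled to predicted hepatic clearance (well-stirred model, fub assumed 1) and extraction ratio.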

The values below come from US20240208972A1, “LRRK2 INHIBITORS AND USES THEREOF” (NEURON23, INC., priority 2022, published 2024).

In the case of `Cc1n[nH]c2c1N=C(c1c(F)cccc1F)Nc1cc(F)c(N3CCOCC3)cc1-2` [Example 28, 4-[5-(2,6-difluorophenyl)-8-fluoro-3-methyl-1,6-dihydropyrazolo[4,3-d][1,3]benzodiazepine-9-yl]morpholine], in data set [1], the “Caco-2 A2B (10^−6 cm/s)” value was “H (H (High permeability)”: A2B (B2A)>5)”, the “Caco-2 B2A (10^−6 cm/s)” value is “H (H (High permeability)”: A2B (B2A)>5)” and the “Caco-2 ER” value was “N (N (Non-substrate)”: ER<2.5)”. The CLhep predicted at 1 µM in data set [2] was under 6.3 mL/min/kg.
With `Cc1n[nH]c2c1N=C(c1c(F)cccc1F)Nc1c-2cc(N2CC3(CCOCC3)C2)nc1C` [Example 47, 2-[8-(2,6-difluorophenyl)-5,11-dimethyl-3,4,7,9,12-pentazatricyclo[8.4.0.02,6]tetradeca-1(10),2(6),4,7,11,13-hexaen-13-yl]-7-oxa-2-azaspiro[3.5]nonane], in data set [1], the “Caco-2 A2B (10^−6 cm/s)” value is listed as “M (M (Moderate permeability)”: 1≤A2B (B2A)≤5)”, the “Caco-2 B2A (10^−6 cm/s)” value is “H (H (High permeability)”: A2B (B2A)>5)” and the “Caco-2 ER” value was “L (L (Likely)”: ER>2.5)”. Also, the CLhep predicted at 1 µM in data set [2] is 6.3 to 14.7 mL/min/kg.
Taken in the same sequence, the figures for `[2H]C([2H])([2H])c1n[nH]c2c1N=C(c1c(F)cccc1F)Nc1ccc(N3CCO[C@@H](C)C3)cc1-2` [Example 34, (2S)-4-[5-(2,6-difluorophenyl)-3-(trideuteriomethyl)-1,6-dihydropyrazolo[4,3-d][1,3]benzodiazepin-9-yl]-2-methyl-morpholine] were “H (H (High permeability)”: A2B (B2A)>5)”, “H (H (High permeability)”: A2B (B2A)>5)”, “N (N (Non-substrate)”: ER<2.5)” and under 6.3 mL/min/kg.
Taken in the same sequence, the figures for `Cc1n[nH]c2c1N=C(c1c(F)cccc1F)Nc1ccc(N3CCO[C@@H](C)C3)cc1-2` [Example 26, (S)-4-(5-(2,6-difluorophenyl)-3-methyl-1,6-dihydrobenzo[d]pyrazolo[3,4-f][1,3]diazepin-9-yl)-2-methylmorpholine] were “H (H (High permeability)”: A2B (B2A)>5)”, “H (H (High permeability)”: A2B (B2A)>5)”, “N (N (Non-substrate)”: ER<2.5)” and under 6.3 mL/min/kg.
For `Cc1n[nH]c2c1N=C(c1c(F)cccc1F)Nc1c-2cc(N2CCN(CC(F)F)CC2)nc1C` [Example 19, 13-[4-(2,2-difluoroethyl)piperazin-1-yl]-8-(2,6-difluorophenyl)-5,11-dimethyl-3,4,7,9,12-pentazatricyclo[8.4.0.02,6]tetradeca-1(10),2(6),4,7,11,13-hexaene] the same measures were “H (H (High permeability)”: A2B (B2A)>5)”, “H (H (High permeability)”: A2B (B2A)>5)”, “N (N (Non-substrate)”: ER<2.5)” and 6.3 to 14.7 mL/min/kg.
For the molecule `Cc1n[nH]c2c1N=C(c1c(F)cccc1F)Nc1ccc(N3CCN(CCF)CC3)cc1-2` [Example 25, 5-(2,6-difluorophenyl)-9-[4-(2-fluoroethyl)piperazin-1-yl]-3-methyl-1,6-dihydropyrazolo[4,3-d][1,3]benzodiazepine], in data set [1], the “Caco-2 A2B (10^−6 cm/s)” value is given as “H (H (High permeability)”: A2B (B2A)>5)”, the “Caco-2 B2A (10^−6 cm/s)” value is listed as “H (H (High permeability)”: A2B (B2A)>5)” and the “Caco-2 ER” value is “L (L (Likely)”: ER>2.5)”. The CLhep predicted at 1 µM in data set [2] is under 6.3 mL/min/kg.
Regarding `Cc1n[nH]c2c1N=C(c1c(F)cccc1F)Nc1c-2cc(N2CCN(CC(C)(C)F)CC2)nc1C` [Example 5, 5-(2,6-difluorophenyl)-9-(4-(2-fluoro-2-methylpropyl)piperazin-1-yl)-3,7-dimethyl-1,6-dihydropyrazolo[4,3-d]pyrido[4,3-f][1,3]diazepine], in data set [1], the “Caco-2 A2B (10^−6 cm/s)” value is given as “H (H (High permeability)”: A2B (B2A)>5)”, the “Caco-2 B2A (10^−6 cm/s)” value is “H (H (High permeability)”: A2B (B2A)>5)” and the “Caco-2 ER” value is given as “N (N (Non-substrate)”: ER<2.5)”. Besides, in data set [2], the CLhep predicted at 1 µM was 6.3 to 14.7 mL/min/kg.
As to `[2H]C([2H])([2H])c1n[nH]c2c1N=C(c1c(F)cccc1F)Nc1cnc(N3CCOCC3)cc1-2` [Example 32, 4-[8-(2,6-difluorophenyl)-5-(trideuteriomethyl)-3,4,7,9,12-pentazatricyclo[8.4.0.02,6]tetradeca-1(10),2(6),4,7,11,13-hexaen-13-yl]morpholine], in data set [1], the “Caco-2 A2B (10^−6 cm/s)” value is “H (H (High permeability)”: A2B (B2A)>5)”, the “Caco-2 B2A (10^−6 cm/s)” value is given as “H (H (High permeability)”: A2B (B2A)>5)” and the “Caco-2 ER” value is “L (L (Likely)”: ER>2.5)”. Besides, the CLhep predicted at 1 µM in data set [2] was under 6.3 mL/min/kg.
On to `Cc1n[nH]c2c1N=C(c1c(F)cccc1F)Nc1c-2cc(N2CCO[C@@H](C)C2)nc1C` [Example 40, (S)-4-(5-(2,6-difluorophenyl)-3,7-dimethyl-1,6-dihydropyrazolo[4,3-d]pyrido[4,3-f][1,3]diazepin-9-yl)-2-methylmorpholine], for which, in data set [1], the “Caco-2 A2B (10^−6 cm/s)” value is listed as “H (H (High permeability)”: A2B (B2A)>5)”, the “Caco-2 B2A (10^−6 cm/s)” value is on record as “H (H (High permeability)”: A2B (B2A)>5)” and the “Caco-2 ER” value is “N (N (Non-substrate)”: ER<2.5)”. In data set [2], the CLhep predicted at 1 µM was under 6.3 mL/min/kg.
On to `Cn1nccc1-c1cc2c(cn1)NC(c1c(F)cccc1F)=Nc1c(Cl)n[nH]c1-2` [Example 59, 3-chloro-5-(2,6-difluorophenyl)-9-(1-methyl-1H-pyrazol-5-yl)-1,6-dihydropyrazolo[4,3-d]pyrido[4,3-f][1,3]diazepine], for which, in data set [1], the “Caco-2 A2B (10^−6 cm/s)” value is “H (H (High permeability)”: A2B (B2A)>5)”, the “Caco-2 B2A (10^−6 cm/s)” value is listed as “H (H (High permeability)”: A2B (B2A)>5)” and the “Caco-2 ER” value is recorded as “N (N (Non-substrate)”: ER<2.5)”. Also, the CLhep predicted at 1 µM in data set [2] was 6.3 to 14.7 mL/min/kg.
In the case of `Cc1n[nH]c2c1N=C(c1c(F)cccc1F)Nc1c-2cc(N2CCN(CC(F)(F)F)CC2)nc1C` [Example 23, 5-(2,6-difluorophenyl)-3,7-dimethyl-9-(4-(2,2,2-trifluoroethyl)piperazin-1-yl)-1,6-dihydropyrazolo[4,3-d]pyrido[4,3-f][1,3]diazepine], in data set [1], the “Caco-2 A2B (10^−6 cm/s)” value is recorded as “H (H (High permeability)”: A2B (B2A)>5)”, the “Caco-2 B2A (10^−6 cm/s)” value is “H (H (High permeability)”: A2B (B2A)>5)” and the “Caco-2 ER” value was “N (N (Non-substrate)”: ER<2.5)”. The CLhep predicted at 1 µM in data set [2] was 6.3 to 14.7 mL/min/kg.
As for `Cc1n[nH]c2c1N=C(c1c(F)cccc1F)Nc1cnc(-c3cnn(C(F)F)c3)cc1-2` [Example 1, 9-(1-(difluoromethyl)-1H-pyrazol-4-yl)-5-(2,6-difluorophenyl)-3-methyl-1,6-dihydropyrazolo[4,3-d]pyrido[4,3-f][1,3]diazepine], in data set [1], the “Caco-2 A2B (10^−6 cm/s)” value is “H (H (High permeability)”: A2B (B2A)>5)”, the “Caco-2 B2A (10^−6 cm/s)” value is on record as “H (H (High permeability)”: A2B (B2A)>5)” and the “Caco-2 ER” value was “N (N (Non-substrate)”: ER<2.5)”. In addition, in data set [2], the CLhep predicted at 1 µM is under 6.3 mL/min/kg.
In the case of `Cc1n[nH]c2c1N=C(c1c(F)cccc1F)Nc1ccc(N3CCO[C@H](C)C3)cc1-2` [Example 7, (R)-4-(5-(2,6-difluorophenyl)-3-methyl-1,6-dihydrobenzo[d]pyrazolo[3,4-f][1,3]diazepin-9-yl)-2-methylmorpholine], in data set [1], the “Caco-2 A2B (10^−6 cm/s)” value is given as “H (H (High permeability)”: A2B (B2A)>5)”, the “Caco-2 B2A (10^−6 cm/s)” value was “H (H (High permeability)”: A2B (B2A)>5)” and the “Caco-2 ER” value was “N (N (Non-substrate)”: ER<2.5)”. In addition, the CLhep predicted at 1 µM in data set [2] is 6.3 to 14.7 mL/min/kg.
With `Cc1n[nH]c2c1N=C(c1c(F)cccc1F)Nc1c-2cc(N2CCN(CCF)C[C@H]2C)nc1C` (single isomer, unassigned) [Example 18], in data set [1], the “Caco-2 A2B (10^−6 cm/s)” value is “H (H (High permeability)”: A2B (B2A)>5)”, the “Caco-2 B2A (10^−6 cm/s)” value was “H (H (High permeability)”: A2B (B2A)>5)” and the “Caco-2 ER” value was “N (N (Non-substrate)”: ER<2.5)”. In data set [2], the CLhep predicted at 1 µM is 6.3 to 14.7 mL/min/kg.
As for `[2H]C1([2H])OC([2H])([2H])C([2H])([2H])N(c2ccc3c(c2)-c2[nH]nc(C)c2N=C(c2c(F)cccc2F)N3)C1([2H])[2H]` [Example 22, 2,2,3,3,5,5,6,6-octadeuterio-4-[5-(2,6-difluorophenyl)-3-methyl-1,6-dihydropyrazolo[4,3-d][1,3]benzodiazepin-9-yl]morpholine], in data set [1], the “Caco-2 A2B (10^−6 cm/s)” value is on record as “H (H (High permeability)”: A2B (B2A)>5)”, the “Caco-2 B2A (10^−6 cm/s)” value is listed as “H (H (High permeability)”: A2B (B2A)>5)” and the “Caco-2 ER” value is listed as “N (N (Non-substrate)”: ER<2.5)”. In data set [2], the CLhep predicted at 1 µM was 6.3 to 14.7 mL/min/kg.
As for `Cc1n[nH]c2c1N=C(c1c(F)cccc1F)N1CCc3nc(N4CCOCC4)cc-2c31` [Example 42, 4-[8-(2,6-difluorophenyl)-5-methyl-3,4,7,9,13-pentazatetracyclo[7.6.1.02,6.012,16]hexadeca-1(16),2(6),4,7,12,14-hexaen-14-yl]morpholine], in data set [1], the “Caco-2 A2B (10^−6 cm/s)” value was “H (H (High permeability)”: A2B (B2A)>5)”, the “Caco-2 B2A (10^−6 cm/s)” value was “H (H (High permeability)”: A2B (B2A)>5)” and the “Caco-2 ER” value is “N (N (Non-substrate)”: ER<2.5)”. The CLhep predicted at 1 µM in data set [2] is 6.3 to 14.7 mL/min/kg.
With `Cc1n[nH]c2c1N=C(c1c(F)cccc1F)Nc1c-2cc(N2CCN(CCF)CC2)nc1C` [Example 9, 8-(2,6-difluorophenyl)-13-[4-(2-fluoroethyl)piperazin-1-yl]-5,11-dimethyl-3,4,7,9,12-pentazatricyclo[8.4.0.02,6]tetradeca-1(10),2(6),4,7,11,13-hexaene], in data set [1], the “Caco-2 A2B (10^−6 cm/s)” value is recorded as “H (H (High permeability)”: A2B (B2A)>5)”, the “Caco-2 B2A (10^−6 cm/s)” value is on record as “H (H (High permeability)”: A2B (B2A)>5)” and the “Caco-2 ER” value is “N (N (Non-substrate)”: ER<2.5)”. The CLhep predicted at 1 µM in data set [2] was under 6.3 mL/min/kg.
